Measured values from US20260356841A1, “HETEROCYCLIC PYRIDINONE COMPOUNDS AS TRIGGERING RECEPTOR EXPRESSED ON MYELOID CELLS 2 AGONISTS AND METHODS OF USE” (Vigil Neuroscience, Inc., priority 2023, published 2026).
pEC50: −log10 of the molar value.

Biological target: T1, human TREM2 (Homo sapiens, UniProt Q9NZC2)
T1 construct: expressed in transfected cells; host or cells: HEK293T (HEK293T-hTREM2 cells)
Test: TREM2 agonist potency by cellular phosphorylation of Spleen Tyrosine Kinase (Syk), AlphaLisa, HEK293T-hTREM2 cells
Type: cell-based
Details: not given
Procedure: Measurement of TREM2 agonist potency was done using a HEK cell line expressing human TREM2 and DAP12 (HEK293T-hTREM2 cells). Binding of small molecules to, and activation of, TREM2 increases the phosphorylation of Syk. The resultant levels of Syk phosphorylation are measured using a commercial AlphaLisa reagent kit. To perform the assay, HEK-hTREM2 cells were plated at 14,000 cells per well in a 384 well plate, in 25 μL of complete growth media and incubated at 37° C., 5% CO2 for 20-24 hours.
Prior to the assay, test compounds were diluted in the 384 well plates in assay buffer and allowed to equilibrate for 30 minutes. Growth media was removed from cell plates by inversion on blotting paper, and 25 μL of test articles in assay buffer was added to cells. Cells were incubated for 45 minutes at room temperature. After 45 minutes, assay buffer was removed and 10 μL of lysis buffer was added. Plates were shaken for 20 minutes at 350 RPM at room temperature. After complete lysis, AlphaLisa reagents were added to the lysate, and fluorescence intensity was measured using a Perkin Elmer Envision plate reader. Intensities were used to generate a standard curve, and % activation was calculated. Curve fitting was performed using Prism v9 software, log (agonist) vs response-variable slope (four parameters), and EC50s were calculated from the curve fit.
The results presented in Table B have been generated with the in vitro assay described above. This assay may be used to test any of the compounds described herein to assess and characterize a compound's ability to act as an agonist of TREM2.

T1 sequence (Q9NZC2 19-230): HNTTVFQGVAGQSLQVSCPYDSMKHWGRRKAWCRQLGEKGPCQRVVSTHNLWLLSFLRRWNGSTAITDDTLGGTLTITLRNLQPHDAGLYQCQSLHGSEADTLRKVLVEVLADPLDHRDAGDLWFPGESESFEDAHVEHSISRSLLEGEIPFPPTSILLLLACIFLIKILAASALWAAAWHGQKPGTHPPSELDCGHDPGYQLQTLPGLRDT
T1 sequence (O43914 22-113 partner): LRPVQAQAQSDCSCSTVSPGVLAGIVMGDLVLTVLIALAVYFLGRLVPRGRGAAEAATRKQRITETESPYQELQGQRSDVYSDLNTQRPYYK

Structure (SMILES)	pEC50
[2H]C([2H])([2H])n1cc([C@H]2C[C@@H](c3nc(-c4ccc(C(F)(F)F)cc4F)c4nc(OC)c(C)nc4n3)CCO2)ccc1=O [Example 132, 5-[(2R,4S)-4-[4-[2-fluoro-4-(trifluoromethyl)phenyl]-6-methoxy-7-methyl-pteridin-2-yl]tetrahydropyran-2-yl]-1-(trideuteriomethyl)pyridin-2-one]	> 7.00

Same assay, conditions: hTREM2 EC50 Data (HEK293 Cells); Syk phosphorylation, AlphaLisa; read-out: hTREM2 EC50

Structure (SMILES)	pEC50
Cc1nc2nc([C@H]3CCO[C@@H](c4ccc(=O)n(C(C)C)c4)C3)nc(-c3ccc(C(F)(F)F)cc3F)c2nc1C [Example 68, 1-isopropyl-5-[(2R,4S)-4-[4-[2-fluoro-4-(trifluoromethyl)-phenyl]-6,7-dimethyl-pteridin-2-yl]tetrahydropyran-2-yl]pyridin-2-one]	> 7.00
C=CCNn1cc([C@H]2C[C@@H](c3nc(C45CC(C(F)(F)F)(C4)C5)c4nc(C)c(C)nc4n3)CCO2)ccc1=O [Example 207, 1-(allylamino)-5-[(2R,4S)-4-[6,7-dimethyl-4-[3-(trifluoromethyl)-1-bicyclo[1.1.1]pentanyl]pteridin-2-yl]tetrahydropyran-2-yl]pyridin-2-one]	> 7.00
COCCn1cc([C@H]2C[C@@H](c3nc(C45CC(C(F)(F)F)(C4)C5)c4nc(C)c(C)nc4n3)CCO2)ccc1=O [Example 82, 5-[(2R,4S)-4-[6,7-dimethyl-4-[3-(trifluoromethyl)-1-bicyclo[1.1.1]pentanyl]pteridin-2-yl]tetrahydropyran-2-yl]-1-(2-methoxyethyl)pyridin-2-one]	> 7.00
Cc1nc2nc(N3C[C@@H](C)O[C@@H](c4ccc(=O)n(C)c4)C3)nc(-c3ccc(F)cc3F)c2nc1C [Example 16, 5-[(2S,6R)-4-[4-(2,4-difluorophenyl)-6,7-dimethyl-pteridin-2-yl]-6-methyl-morpholin-2-yl]-1-methyl-pyridin-2-one]	> 7.00
Cc1nc2nc(N3CCC(F)(F)C(c4ccc(=O)[nH]c4)C3)nc(-c3ccc(F)cc3F)c2nc1C (centres unmarked) [Example 189, 5-[1-[4-(2,4-difluorophenyl)-6,7-dimethyl-pteridin-2-yl]-4,4-difluoro-3-piperidyl]-1H-pyridin-2-one]	> 7.00
Cc1nc2nc([C@H]3CCO[C@@H](c4ccc(=O)n(C)c4)C3)nc(C34CC(CC(F)(F)F)(C3)C4)c2nc1C [Example 54, 5-[(2R,4S)-4-[6,7-dimethyl-4-[3-(2,2,2-trifluoroethyl)-1-bicyclo[1.1.1]pentanyl]pteridin-2-yl]tetrahydro-2H-pyran-2-yl]-1-methyl-pyridin-2(1H)-one]	> 7.00
Cc1nc2nc([C@H]3CCO[C@@H](c4ccc(=O)n(N(C)C)c4)C3)nc(C34CC(C(F)(F)F)(C3)C4)c2nc1C [Example 178, 1-(dimethylamino)-5-[(2R,4S)-4-[6,7-dimethyl-4-[3-(trifluoromethyl)-1-bicyclo[1.1.1]pentanyl]pteridin-2-yl]tetrahydropyran-2-yl]pyridin-2-one]	> 7.00
[2H]C([2H])([2H])n1cc([C@H]2C[C@@H](c3nc(C45CC(C(F)(F)F)(C4)C5)c4nc(OC)c(C)nc4n3)CCO2)ccc1=O [Example 147, 5-((2R,4S)-4-(6-methoxy-7-methyl-4-(3-(trifluoromethyl)-bicyclo[1.1.1]pentan-1-yl)pteridin-2-yl)tetrahydro-2H-pyran-2-yl)-1-(methyl-d3)pyridin-2(1H)-one]	> 7.00
Cc1nc2nc([C@@H]3CCO[C@H](c4ccc(=O)n(C)c4)C3)nc(C34CC(C(F)F)(C3)C4)c2nc1C [Example 32, 5-[(2S,4R)-4-[4-[3-(difluoromethyl)-1-bicyclo[1.1.1]-pentanyl]-6,7-dimethyl-pteridin-2-yl]tetrahydropyran-2-yl]-1-methyl-pyridin-2-one]	6.30 to 7.00
Cc1cc2c(C34CC(C(F)(F)F)(C3)C4)nc([C@H]3CCO[C@@H](c4ccc(=O)n(C)c4)C3)nc2nc1C [Example 324]	> 7.00
CC(C)=Nn1cc([C@H]2C[C@@H](c3nc(C45CC(C(F)(F)F)(C4)C5)c4cc(C(F)(F)F)c(C)nc4n3)CCO2)ccc1=O [Example 208, 5-((2R,4S)-4-(7-methyl-6-(trifluoromethyl)-4-(3-(trifluoromethyl)bicyclo[1.1.1]pentan-1-yl)pyrido[2,3-d]pyrimidin-2-yl)tetrahydro-2H-pyran-2-yl)-1-(propan-2-ylideneamino)pyridin-2 (1H)-one]	> 7.00
Cc1cnc2c(C34CC(C(F)(F)F)(C3)C4)nc([C@H]3CCO[C@@H](c4ccc(=O)[nH]c4)C3)nc2n1 [Example 187, 5-((2R,4S)-4-(7-methyl-4-(3-(trifluoromethyl)bicyclo[1.1.1]pentan-1-yl)pteridin-2-yl)tetrahydro-2H-pyran-2-yl)pyridin-2(1H)-one]	6.30 to 7.00
Cc1nc2nc([C@H]3CCO[C@@H](c4ccc(=O)n(CC#N)c4)C3)nc(C34CC(C(F)(F)F)(C3)C4)c2nc1C [Example 86, 2-[5-[(2R,4S)-4-[6,7-dimethyl-4-[3-(trifluoromethyl)-1-bicyclo[1.1.1]pentanyl]pteridin-2-yl]tetrahydropyran-2-yl]-2-oxo-1-pyridyl]acetonitrile]	> 7.00
Cc1nc2nc([C@H]3CCO[C@@H](c4ccc(=O)n(C)c4)C3)nc([C@H]3CC[C@H](F)CC3)c2nc1C [Example 42, 5-((2R,4S)-4-(4-((1r,4S)-4-fluorocyclohexyl)-6,7-dimethyl-pteridin-2-yl)tetrahydro-2H-pyran-2-yl)-1-methylpyridin-2(1H)-one]	> 7.00
Cc1nc2nc([C@H]3CCO[C@@H](c4ccc(=O)n(C(C)C)c4)C3)nc(C34CC(C(F)(F)F)(C3)C4)c2nc1C [Example 77, 1-isopropyl-5-[(2R,4S)-4-[6,7-dimethyl-4-[3-(trifluoromethyl)-1-bicyclo[1.1.1]-pentanyl]pteridin-2-yl]tetrahydropyran-2-yl]pyridin-2-one]	> 7.00
Cc1nc2nc([C@H]3CCO[C@@H](c4ccc(=O)n(C)c4)C3)nc(C34CC(C(F)(F)F)(C3)C4)c2nc1C1CC1 [Example 158, 1-methyl-5-[(2R,4S)-4-[6-cyclopropyl-7-methyl-4-[3-(trifluoro-methyl)-1-bicyclo[1.1.1]pentanyl]pteridin-2-yl]tetrahydropyran-2-yl]pyridin-2-one]	> 7.00
CNn1cc([C@H]2C[C@@H](c3nc(C45CC(C(F)(F)F)(C4)C5)c4nc(C)c(C)nc4n3)CCO2)ccc1=O [Example 179, 5-[(2R,4S)-4-[6,7-dimethyl-4-[3-(trifluoromethyl)-1-bicyclo[1.1.1]pentanyl]pteridin-2-yl]tetrahydropyran-2-yl]-1-(methylamino)pyridin-2-one]	> 7.00
Cc1nc2nc([C@H]3CCO[C@@H](c4ccc(=O)n(C)c4)C3)nc(C3CCC(CF)CC3)c2nc1C (stereo partly drawn) [Example 50, 5-[(2R,4S)-4-[4-[4-(fluoromethyl)-cyclohexyl]-6,7-dimethyl-pteridin-2-yl]tetrahydropyran-2-yl]-1-methyl-pyridin-2-one]	> 7.00
Cc1nc2nc([C@H]3CCO[C@@H](c4ccc(=O)n(C)c4)C3)nc(C34CC(C(F)(F)F)(C3)C4)c2cc1C(F)(F)F [Example 326, 1-methyl-5-[(2R,4S)-4-[7-methyl-6-(trifluoromethyl)-4-[3-(trifluoromethyl)-1-bicyclo[1.1.1]pentanyl]pyrido[2,3-d]pyrimidin-2-yl]tetrahydropyran-2-yl]pyridin-2-one]	> 7.00
